Legend:
[1] = molecular target: T1, thymidine phosphorylase (TP) (Escherichia coli, UniProt P07650); assay: Thymidine phosphorylase inhibition assay (spectrophotometric, 290 nm); type: biochemical, E. coli; settings: for inhibition: read-out: Percent Inhibition of thymidine phosphorylase, 10 μL of test compound (0.5 mM in dimethylsulfoxide) per well, <50% regarded inactive; for IC50: recombinant TP expressed in E. coli, substrate thymidine, pH 7.0, 30°C, N.A. = not active, read-out: IC50 (μM ± SEM), thymidine phosphorylase inhibition
T1 construct: purchased Sigma Aldrich, USA; host or cells: E. coli
T1 sequence (P07650 whole entry): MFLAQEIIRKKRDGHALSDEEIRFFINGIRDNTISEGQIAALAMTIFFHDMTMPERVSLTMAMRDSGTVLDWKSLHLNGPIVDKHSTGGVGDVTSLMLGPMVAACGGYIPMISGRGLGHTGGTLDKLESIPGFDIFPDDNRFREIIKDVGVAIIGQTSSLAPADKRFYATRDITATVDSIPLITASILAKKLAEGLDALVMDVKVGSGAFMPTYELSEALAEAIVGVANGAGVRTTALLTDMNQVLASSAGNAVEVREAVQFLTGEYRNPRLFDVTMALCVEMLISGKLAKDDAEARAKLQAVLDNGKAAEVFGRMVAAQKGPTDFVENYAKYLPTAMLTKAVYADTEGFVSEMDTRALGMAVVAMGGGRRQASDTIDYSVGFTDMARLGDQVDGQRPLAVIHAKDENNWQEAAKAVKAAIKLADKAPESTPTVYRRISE
Experimental: Since human TP is not commercially available, we used commercially available recombinant TP (expressed in E. coli) enzyme. Primary sequence of TP is mostly conserved throughout the evolution and mammalian TP share 39% sequence similarity with TP of E. coli. The mammalian enzyme also shares 65–70% similarity with the active site residues of E. coli TP enzyme.
Assay for TP inhibition was performed spectrophotometrically, following the method of Bera et al. with some modifications. Enzyme TP catalyzed the reversible phosphorolysis of thymidine to thymine and 2-deoxyribose-1-phosphate. Reaction mixture contained 150 μL of potassium phosphate buffer (pH 7.0, 50 mM), 20 μL of enzyme (0.058 U/well), and 10 μL of test compound (0.5 mM in dimethylsulfoxide). The reaction mixture was incubated for 10 min at 30°C. 20 μL of substrate (1.5 mM) was then added and change in absorbance was recorded after every minute for a total time period of 10 minutes at 290 nm in ELISA plate reader (Spectra Max-340, Molecular Devices, CA, USA).
We have used the 96-well UV-plates, purchased from Corning (Catalogue No. COSTAR 3635, Lot No. 00912050). […] We then added the substrate (thymidine), and recorded the final readings.

[2] = molecular target: T1, thymidine phosphorylase (TP); assay: Kinetic studies on thymidine phosphorylase (Lineweaver-Burk, secondary re-plot, Dixon plot); type: biochemical, E. coli; settings: thymidine as variable substrate; for Inhibition Type: from Lineweaver-Burk plot
Experimental: Kinetic studies were carried out to identify the mechanism of inhibition by these compounds. Inhibitor could bind with the enzyme in multiple ways, such as in competitive, non-competitive, mixed or uncompetitive way. In kinetic assay, the enzyme (0.058 U/200 μL) was incubated with different concentrations of inhibitor for 10 min at 30°C. The reaction was then initiated by adding different concentrations (0.1875–1.5 mM) of substrate (thymidine), and the resulting degradation of thymidine was measured continuously at 290 nm for 10 min on ELISA plate reader. Every experiment was run in triplicate.
Lineweaver-Burk plot was plotted to determine the type of inhibition. This was accomplished by plotting the reciprocal of the rate of reaction against the reciprocal of the substrate concentration. Ki values were determined by secondary re-plot of Lineweaver-Burk plot, and reconfirmed by Dixon plot.

[3] = tested on: mouse fibroblast (3T3) cells; assay: MTT anti-proliferative (cytotoxicity) assay, 3T3 cells; type: cell-based; settings: NIH3T3, 48 h incubation, mouse fibroblast normal cell line, read-out: IC50 ± Standard Deviation, 3T3 Cell Line
Experimental: (§1) Anti-proliferative activity of active compounds was evaluated by using the standard MTT (3-[4,5-dimethylthiazole-2-yl]-2,5-diphenyl-tetrazolium bromide) colorimetric assay in 96-well plate.
(§2) It is a colorimetric assay that measures the reduction of MTT by mitochondrial enzyme i.e. succinate dehydrogenase. The MTT enters into the mitochondria of cell, where it is reduced to an insoluble formazan salt. As reduction of MTT can only occur in metabolically active cells, the level of activity is actually a measure of the viability of the cells.
(§3) Mouse fibroblast normal cell line 3T3, and prostate cancer line (PC3) were cultured separately in DMEM, supplemented with 5% of FBS, 100 IU/mL of penicillin and 100 μg/mL of streptomycin, and kept at 37°C in 5% CO2 incubator. For the preparation of cell culture, 100 μL/well of cell solution (5 x 10^4 cells/mL) was added into 96-well plate. The plate was incubated for overnight, and fresh medium was added after the removal of old medium. The test compounds were also added in different concentrations into the plate, and again incubated for 48 h. After the completion of this incubation period, 200 μL MTT (0.5 mg/mL) was added, and plate was again incubated for 4 h, after this final incubation, 100 μL of DMSO was added to each well. The level of MTT reduction to formazan was evaluated by change in absorbance at 540 nm for 3T3, and 570 nm for PC3 using a micro-plate reader (Spectra Max plus, Molecular Devices, CA, USA).

[4] = tested on: prostate cancer (PC3) cells; assay: MTT anti-proliferative assay, PC3 cells; type: cell-based; settings: Homo sapiens, PC-3, 48 h incubation, prostate cancer cell line, read-out: IC50 ± Standard Deviation, PC3 Cell Line
Experimental: as §1, §2, §3

SMILES | inhibition [1] [%] | IC50 [1] [µM] | Inhibition Type [2] | Ki ([2]; secondary re-plot of Lineweaver-Burk plot, reconfirmed by Dixon plot, read-out: Ki (μM ± SEM)) [µM] | IC50 [3] [µM] | IC50 [4] [µM]
O=C(NN=Cc1cc(Br)cc(Br)c1O)c1ccc(O)cc1 [Compound 22, N'-[(E)-(3^′,5^′-Dibromo-2^′-hydroxylphenyl)methylidene]-4-hydroxylbenzohydrazide] | 99.9 | 6.8 ± 0.7 | Non-competitive | 1.75 ± 0.009 | 9.2 ± 0.1 | 8.3 ± 0.9
C/C(=N\NC(=O)c1ccc(O)cc1)c1c(O)cccc1O [Compound 27, N'-[(E)-1-(2^′,6^′-Dihydroxylphenyl)ethylidene]-4-hydroxylbenzohydrazide] | 93 | – | Uncompetitive | – | 26.7 ± 1 | > 30
CC/C(=N\NC(=O)c1ccc(O)cc1)c1cc(O)ccc1O [Compound 29, N'-[(E)-1-(2^′,5^′-Dihydroxylphenyl)propylidene]-4-hydroxylbenzohydrazide] | 99 | 173 ± 1.4 | Uncompetitive | – | 19.5 ± 0.9 | > 30

Reference: paper PMC6984732, “Thymidine phosphorylase and prostrate cancer cell proliferation inhibitory activities of synthetic 4-hydroxybenzohydrazides: In vitro, kinetic, and in silico studies” (PLoS ONE, 2020)
